The supplement of paper PMC10307832

Legend:
Assay in all cases: relative viability (nuclei count vs DMSO), 5 days (fraction); higher = more cells survive
Dabrafenib + Olaparib = compound: CC(C)(C)c1nc(-c2cccc(NS(=O)(=O)c3c(F)cccc3F)c2F)c(-c2ccnc(N)n2)s1 [Dabrafenib] + O=C(c1cc(Cc2n[nH]c(=O)c3ccccc23)ccc1F)N1CCN(C(=O)C2CC2)CC1 [Olaparib] (partner 8 µM)
In short: (§1)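 A single step with final 0.05% Triton X-100, 1% formaldehyde and 1 ug/ml Hoechst fixed the cells and stained nuclei 5 days after treatment. Lung cancer cell lines in 1536-well plates had been treated by pin tool the day after seeding with one drug alone or a fixed anchor-drug dose plus five library-drug doses (not always all listed) in √10 steps, and nuclei were counted on 4× images. Relative viability is the ratio of nuclei in treated wells to nuclei in vehicle wells, taken as the median of duplicate plates.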

VX-702 + Foretinib = compound: NC(=O)c1ccc(N(C(N)=O)c2c(F)cccc2F)nc1-c1ccc(F)cc1F [VX-702] + COc1cc2c(Oc3ccc(NC(=O)C4(C(=O)Nc5ccc(F)cc5)CC4)cc3F)ccnc2cc1OCCCN1CCOCC1 [Foretinib] (partner 0.25 µM)
In short: as §1

VX-702 + Crizotinib = compound: NC(=O)c1ccc(N(C(N)=O)c2c(F)cccc2F)nc1-c1ccc(F)cc1F [VX-702] + C[C@@H](Oc1cc(-c2cnn(C3CCNCC3)c2)cnc1N)c1c(Cl)ccc(F)c1Cl [Crizotinib] (partner 1 µM)
In short: as §1

Dabrafenib + AZD7762 = compound: CC(C)(C)c1nc(-c2cccc(NS(=O)(=O)c3c(F)cccc3F)c2F)c(-c2ccnc(N)n2)s1 [Dabrafenib] + NC(=O)Nc1cc(-c2cccc(F)c2)sc1C(=O)N[C@H]1CCCNC1 [AZD7762] (partner 0.2 µM)
In short: as §1

## HCC-78
Dabrafenib + Olaparib; first compound 0.009487 µM
  relative viability: 0.847
Dabrafenib + Olaparib; first compound 0.03 µM
  relative viability: 0.733
Dabrafenib + Olaparib; first compound 0.09487 µM
  relative viability: 0.452
Dabrafenib + Olaparib; first compound 0.3 µM
  relative viability: 0.915
VX-702 + Foretinib; first compound 0.02 µM
  relative viability: 0.523
VX-702 + Foretinib; first compound 0.2 µM
  relative viability: 0.527
VX-702 + Foretinib; first compound 0.6325 µM
  relative viability: 0.59
VX-702 + Foretinib; first compound 2 µM
  relative viability: 0.479
VX-702 + Crizotinib; first compound 0.02 µM
  relative viability: 0.348
VX-702 + Crizotinib; first compound 0.2 µM
  relative viability: 0.327
VX-702 + Crizotinib; first compound 0.6325 µM
  relative viability: 0.321
VX-702 + Crizotinib; first compound 2 µM
  relative viability: 0.341
Dabrafenib + AZD7762; first compound 0.009487 µM
  relative viability: 0.683
Dabrafenib + AZD7762; first compound 0.03 µM
  relative viability: 0.466
Dabrafenib + AZD7762; first compound 0.09487 µM
  relative viability: 0.563
Dabrafenib + AZD7762; first compound 0.3 µM
  relative viability: 0.872

## HCC-44
Dabrafenib + Olaparib; first compound 0.003 µM
  relative viability: 0.952
Dabrafenib + Olaparib; first compound 0.009487 µM
  relative viability: 1.03
Dabrafenib + Olaparib; first compound 0.03 µM
  relative viability: 1.08
Dabrafenib + Olaparib; first compound 0.09487 µM
  relative viability: 1
Dabrafenib + Olaparib; first compound 0.3 µM
  relative viability: 0.956
VX-702 + Crizotinib; first compound 0.02 µM
  relative viability: 0.802
VX-702 + Crizotinib; first compound 0.2 µM
  relative viability: 0.739
VX-702 + Crizotinib; first compound 0.6325 µM
  relative viability: 0.817
VX-702 + Crizotinib; first compound 2 µM
  relative viability: 0.971
Dabrafenib + AZD7762; first compound 0.003 µM
  relative viability: 0.966
Dabrafenib + AZD7762; first compound 0.009487 µM
  relative viability: 1.02
Dabrafenib + AZD7762; first compound 0.03 µM
  relative viability: 1.12
Dabrafenib + AZD7762; first compound 0.09487 µM
  relative viability: 1.06
Dabrafenib + AZD7762; first compound 0.3 µM
  relative viability: 1

## LXF-289
Dabrafenib + Olaparib; first compound 0.003 µM
  relative viability: 1.1
Dabrafenib + Olaparib; first compound 0.009487 µM
  relative viability: 1.12
Dabrafenib + Olaparib; first compound 0.03 µM
  relative viability: 1.07
Dabrafenib + Olaparib; first compound 0.09487 µM
  relative viability: 0.892
Dabrafenib + Olaparib; first compound 0.3 µM
  relative viability: 1.07
VX-702 + Foretinib; first compound 0.02 µM
  relative viability: 1.04
VX-702 + Foretinib; first compound 0.2 µM
  relative viability: 0.962
VX-702 + Foretinib; first compound 0.6325 µM
  relative viability: 0.958
VX-702 + Foretinib; first compound 2 µM
  relative viability: 0.98
VX-702 + Crizotinib; first compound 0.02 µM
  relative viability: 0.924
VX-702 + Crizotinib; first compound 0.2 µM
  relative viability: 0.802
VX-702 + Crizotinib; first compound 0.6325 µM
  relative viability: 0.874
VX-702 + Crizotinib; first compound 2 µM
  relative viability: 0.864
Dabrafenib + AZD7762; first compound 0.003 µM
  relative viability: 0.162
Dabrafenib + AZD7762; first compound 0.009487 µM
  relative viability: 1.13
Dabrafenib + AZD7762; first compound 0.03 µM
  relative viability: 1.22
Dabrafenib + AZD7762; first compound 0.09487 µM
  relative viability: 1.06
Dabrafenib + AZD7762; first compound 0.3 µM
  relative viability: 1.29

## 201T
Dabrafenib + Olaparib; first compound 0.003 µM
  relative viability: 0.87
Dabrafenib + Olaparib; first compound 0.009487 µM
  relative viability: 0.836
Dabrafenib + Olaparib; first compound 0.03 µM
  relative viability: 0.762
Dabrafenib + Olaparib; first compound 0.09487 µM
  relative viability: 0.811
Dabrafenib + Olaparib; first compound 0.3 µM
  relative viability: 0.841
VX-702 + Foretinib; first compound 0.02 µM
  relative viability: 0.943
VX-702 + Foretinib; first compound 0.2 µM
  relative viability: 0.987
VX-702 + Foretinib; first compound 0.6325 µM
  relative viability: 1.05
VX-702 + Foretinib; first compound 2 µM
  relative viability: 1.07
VX-702 + Crizotinib; first compound 0.02 µM
  relative viability: 1.01
VX-702 + Crizotinib; first compound 0.2 µM
  relative viability: 1.02
VX-702 + Crizotinib; first compound 0.6325 µM
  relative viability: 1.08
VX-702 + Crizotinib; first compound 2 µM
  relative viability: 1.04
Dabrafenib + AZD7762; first compound 0.003 µM
  relative viability: 0.28
Dabrafenib + AZD7762; first compound 0.009487 µM
  relative viability: 0.711
Dabrafenib + AZD7762; first compound 0.03 µM
  relative viability: 0.59
Dabrafenib + AZD7762; first compound 0.09487 µM
  relative viability: 0.461
Dabrafenib + AZD7762; first compound 0.3 µM
  relative viability: 0.475

## NCI-H1437
Dabrafenib + Olaparib; first compound 0.003 µM
  relative viability: 0.651
Dabrafenib + Olaparib; first compound 0.009487 µM
  relative viability: 0.62
Dabrafenib + Olaparib; first compound 0.03 µM
  relative viability: 0.643
Dabrafenib + Olaparib; first compound 0.09487 µM
  relative viability: 0.592
Dabrafenib + Olaparib; first compound 0.3 µM
  relative viability: 0.618
VX-702 + Foretinib; first compound 0.02 µM
  relative viability: 1.31
VX-702 + Foretinib; first compound 0.2 µM
  relative viability: 1.3
VX-702 + Foretinib; first compound 0.6325 µM
  relative viability: 1.35
VX-702 + Foretinib; first compound 2 µM
  relative viability: 1.41
VX-702 + Crizotinib; first compound 0.02 µM
  relative viability: 0.916
VX-702 + Crizotinib; first compound 0.2 µM
  relative viability: 0.871
VX-702 + Crizotinib; first compound 0.6325 µM
  relative viability: 0.873
VX-702 + Crizotinib; first compound 2 µM
  relative viability: 1.18
Dabrafenib + AZD7762; first compound 0.003 µM
  relative viability: 1.09
Dabrafenib + AZD7762; first compound 0.009487 µM
  relative viability: 1.16
Dabrafenib + AZD7762; first compound 0.03 µM
  relative viability: 1.19
Dabrafenib + AZD7762; first compound 0.09487 µM
  relative viability: 1.11
Dabrafenib + AZD7762; first compound 0.3 µM
  relative viability: 1.18

## HCC-827
Dabrafenib + Olaparib; first compound 0.003 µM
  relative viability: 0.65
Dabrafenib + Olaparib; first compound 0.009487 µM
  relative viability: 0.79
Dabrafenib + Olaparib; first compound 0.03 µM
  relative viability: 0.62
Dabrafenib + Olaparib; first compound 0.3 µM
  relative viability: 0.671
VX-702 + Foretinib; first compound 0.02 µM
  relative viability: 1.07
VX-702 + Foretinib; first compound 0.2 µM
  relative viability: 0.988
VX-702 + Foretinib; first compound 0.6325 µM
  relative viability: 1.07
VX-702 + Foretinib; first compound 2 µM
  relative viability: 0.787
VX-702 + Crizotinib; first compound 0.02 µM
  relative viability: 0.922
VX-702 + Crizotinib; first compound 0.2 µM
  relative viability: 0.9
VX-702 + Crizotinib; first compound 0.6325 µM
  relative viability: 0.869
VX-702 + Crizotinib; first compound 2 µM
  relative viability: 0.906
Dabrafenib + AZD7762; first compound 0.003 µM
  relative viability: 0.129
Dabrafenib + AZD7762; first compound 0.009487 µM
  relative viability: 0.234
Dabrafenib + AZD7762; first compound 0.03 µM
  relative viability: 0.216
Dabrafenib + AZD7762; first compound 0.3 µM
  relative viability: 0.276

## HARA
Dabrafenib + Olaparib; first compound 0.009487 µM
  relative viability: 0.971
Dabrafenib + Olaparib; first compound 0.03 µM
  relative viability: 0.799
Dabrafenib + Olaparib; first compound 0.09487 µM
  relative viability: 0.647
Dabrafenib + Olaparib; first compound 0.3 µM
  relative viability: 1.12
VX-702 + Foretinib; first compound 0.02 µM
  relative viability: 0.852
VX-702 + Foretinib; first compound 0.2 µM
  relative viability: 0.763
VX-702 + Foretinib; first compound 0.6325 µM
  relative viability: 0.908
VX-702 + Foretinib; first compound 2 µM
  relative viability: 0.814
VX-702 + Crizotinib; first compound 0.02 µM
  relative viability: 1.1
VX-702 + Crizotinib; first compound 0.2 µM
  relative viability: 0.982
VX-702 + Crizotinib; first compound 0.6325 µM
  relative viability: 1.07
VX-702 + Crizotinib; first compound 2 µM
  relative viability: 1.13
Dabrafenib + AZD7762; first compound 0.009487 µM
  relative viability: 0.392
Dabrafenib + AZD7762; first compound 0.03 µM
  relative viability: 0.46
Dabrafenib + AZD7762; first compound 0.09487 µM
  relative viability: 0.368
Dabrafenib + AZD7762; first compound 0.3 µM
  relative viability: 0.312

## NCI-H838
Dabrafenib + Olaparib; first compound 0.003 µM
  relative viability: 0.772
Dabrafenib + Olaparib; first compound 0.009487 µM
  relative viability: 0.792
Dabrafenib + Olaparib; first compound 0.03 µM
  relative viability: 0.735
Dabrafenib + Olaparib; first compound 0.09487 µM
  relative viability: 0.68
Dabrafenib + Olaparib; first compound 0.3 µM
  relative viability: 0.873
VX-702 + Foretinib; first compound 0.02 µM
  relative viability: 1.02
VX-702 + Foretinib; first compound 0.2 µM
  relative viability: 1.01
VX-702 + Foretinib; first compound 0.6325 µM
  relative viability: 1.13
VX-702 + Foretinib; first compound 2 µM
  relative viability: 1.2
VX-702 + Crizotinib; first compound 0.02 µM
  relative viability: 0.779
VX-702 + Crizotinib; first compound 0.2 µM
  relative viability: 0.755
VX-702 + Crizotinib; first compound 0.6325 µM
  relative viability: 0.807
VX-702 + Crizotinib; first compound 2 µM
  relative viability: 0.976
Dabrafenib + AZD7762; first compound 0.003 µM
  relative viability: 0.993
Dabrafenib + AZD7762; first compound 0.009487 µM
  relative viability: 0.885
Dabrafenib + AZD7762; first compound 0.03 µM
  relative viability: 0.91
Dabrafenib + AZD7762; first compound 0.09487 µM
  relative viability: 0.889
Dabrafenib + AZD7762; first compound 0.3 µM
  relative viability: 0.89

## LCLC-103H
Dabrafenib + Olaparib; first compound 0.003 µM
  relative viability: 0.716
Dabrafenib + Olaparib; first compound 0.009487 µM
  relative viability: 0.733
Dabrafenib + Olaparib; first compound 0.03 µM
  relative viability: 0.687
Dabrafenib + Olaparib; first compound 0.09487 µM
  relative viability: 0.801
Dabrafenib + Olaparib; first compound 0.3 µM
  relative viability: 0.747
VX-702 + Foretinib; first compound 0.02 µM
  relative viability: 0.71
VX-702 + Foretinib; first compound 0.2 µM
  relative viability: 0.702
VX-702 + Foretinib; first compound 0.6325 µM
  relative viability: 0.534
VX-702 + Foretinib; first compound 2 µM
  relative viability: 0.881
VX-702 + Crizotinib; first compound 0.02 µM
  relative viability: 1.04
VX-702 + Crizotinib; first compound 0.2 µM
  relative viability: 0.973
VX-702 + Crizotinib; first compound 0.6325 µM
  relative viability: 1.13
VX-702 + Crizotinib; first compound 2 µM
  relative viability: 1.07
Dabrafenib + AZD7762; first compound 0.003 µM
  relative viability: 0.703
Dabrafenib + AZD7762; first compound 0.009487 µM
  relative viability: 0.834
Dabrafenib + AZD7762; first compound 0.03 µM
  relative viability: 0.701
Dabrafenib + AZD7762; first compound 0.09487 µM
  relative viability: 0.794
Dabrafenib + AZD7762; first compound 0.3 µM
  relative viability: 0.761
